Several values for one entry are separate records, joined by “and”; a condition that tells them apart may be missing. Equal entries are not always repeated.
Assays:
VIP peptides [1] = target: T1, VIP peptides (Homo sapiens, UniProt P01282)
T1 sequence (P01282 whole entry): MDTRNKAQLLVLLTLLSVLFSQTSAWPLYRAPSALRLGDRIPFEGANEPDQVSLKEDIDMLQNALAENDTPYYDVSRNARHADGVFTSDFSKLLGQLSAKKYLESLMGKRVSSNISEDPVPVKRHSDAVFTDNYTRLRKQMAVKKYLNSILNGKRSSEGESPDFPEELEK

VIP peptides [2] = target: T2, VIP peptides (Cavia porcellus, UniProt P04566)
T2 sequence (P04566 whole entry): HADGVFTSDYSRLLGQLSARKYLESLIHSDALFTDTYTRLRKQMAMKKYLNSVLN

Row | Compound | Ki (VIP peptides [1]) | Ki (VIP peptides [2])
1 | CC[C@H](C)[C@H](NC(=O)[C@H](CO)NC(=O)[C@H](CC(N)=O)NC(=O)[C@H](CC(C)C)NC(=O)[C@H](Cc1ccc(O)cc1)NC(=O)[C@H](CCCCN)NC(=O)[C@H](CCCCN)NC(=O)[C@@H](NC(=O)[C@H](C)NC(=O)[C@H](CCSC)NC(=O)[C@H](CCC(N)=O)NC(=O)[C@H](CCCCN)NC(=O)[C@H](CCCN=C(N)N)NC(=O)[C@@H](CC(C)C)NC(=O)[C@H](CCCN=C(N)N)NC(=O)[C@@H](NC(=O)[C@H](Cc1ccc(O)cc1)NC(=O)[C@H](CC(N)=O)NC(=O)[C@H](CC(=O)O)NC(=O)[C@@H](NC(=O)[C@H](Cc1ccccc1)NC(=O)[C@@H](NC(=O)[C@H](C)NC(=O)[C@H](CC(=O)O)NC(=O)[C@H](CO)NC(=O)[C@@H](N)Cc1cnc[nH]1)C(C)C)[C@@H](C)O)[C@@H](C)O)C(C)C)C(=O)N[C@@H](CC(C)C)C(=O)N[C@@H](CC(N)=O)C(N)=O [VIP [D-Leu13]] | 0.0135 µM and 0.0234 µM and 0.0169 µM | 0.0512 µM
2 | CC[C@H](C)[C@H](NC(=O)[C@H](CO)NC(=O)[C@H](CC(N)=O)NC(=O)[C@H](CC(C)C)NC(=O)[C@H](Cc1ccc(O)cc1)NC(=O)[C@H](CCCCN)NC(=O)[C@H](CCCCN)NC(=O)[C@@H](NC(=O)[C@H](C)NC(=O)[C@H](CCSC)NC(=O)[C@H](CCC(N)=O)NC(=O)[C@H](CCCCN)NC(=O)[C@H](CCCN=C(N)N)NC(=O)[C@H](CC(C)C)NC(=O)[C@H](CCCN=C(N)N)NC(=O)[C@@H](NC(=O)[C@@H](Cc1ccc(O)cc1)NC(=O)[C@H](CC(N)=O)NC(=O)[C@H](CC(=O)O)NC(=O)[C@@H](NC(=O)[C@H](Cc1ccccc1)NC(=O)[C@@H](NC(=O)[C@H](C)NC(=O)[C@H](CC(=O)O)NC(=O)[C@H](CO)NC(=O)[C@@H](N)Cc1cnc[nH]1)C(C)C)[C@@H](C)O)[C@@H](C)O)C(C)C)C(=O)N[C@@H](CC(C)C)C(=O)N[C@@H](CC(N)=O)C(N)=O [VIP [D-Tyr10]] | 0.0037 µM and 0.0323 µM and 0.0245 µM | 0.0234 µM
3 | H-HSDAVFTDNYTRLRKQMAVKKYLNSILA-NH2 [VIP Ala28] | 0.00054 µM and 0.0027 µM and 0.0028 µM | 0.0043 µM
4 | CC[C@H](C)[C@H](NC(=O)[C@H](CO)NC(=O)[C@H](CC(N)=O)NC(=O)[C@H](CC(C)C)NC(=O)[C@H](Cc1ccc(O)cc1)NC(=O)[C@H](CCCCN)NC(=O)[C@H](CCCCN)NC(=O)[C@@H](NC(=O)[C@H](C)NC(=O)[C@H](CCSC)NC(=O)[C@H](CCC(N)=O)NC(=O)[C@@H](CCCCN)NC(=O)[C@H](CCCN=C(N)N)NC(=O)[C@H](CC(C)C)NC(=O)[C@H](CCCN=C(N)N)NC(=O)[C@@H](NC(=O)[C@H](Cc1ccc(O)cc1)NC(=O)[C@H](CC(N)=O)NC(=O)[C@H](CC(=O)O)NC(=O)[C@@H](NC(=O)[C@H](Cc1ccccc1)NC(=O)[C@@H](NC(=O)[C@H](C)NC(=O)[C@H](CC(=O)O)NC(=O)[C@H](CO)NC(=O)[C@@H](N)Cc1cnc[nH]1)C(C)C)[C@@H](C)O)[C@@H](C)O)C(C)C)C(=O)N[C@@H](CC(C)C)C(=O)N[C@@H](CC(N)=O)C(N)=O [VIP [D-Lys15]] | 0.002 µM and 0.0138 µM and 0.0109 µM | 0.0199 µM
5 | H-ASDAVFTDNYTRLRKQMAVKKYLNSILN-NH2 [VIP Ala1] | 0.0169 µM and 0.0891 µM and 0.0645 µM | 0.0954 µM
6 | CC[C@H](C)[C@H](NC(=O)[C@H](CO)NC(=O)[C@H](CC(N)=O)NC(=O)[C@H](CC(C)C)NC(=O)[C@H](Cc1ccc(O)cc1)NC(=O)[C@H](CCCCN)NC(=O)[C@H](CCCCN)NC(=O)[C@@H](NC(=O)[C@H](C)NC(=O)[C@H](CCSC)NC(=O)[C@H](CCC(N)=O)NC(=O)[C@H](CCCCN)NC(=O)[C@H](CCCN=C(N)N)NC(=O)[C@H](CC(C)C)NC(=O)[C@H](CCCN=C(N)N)NC(=O)[C@@H](NC(=O)[C@H](Cc1ccc(O)cc1)NC(=O)[C@H](CC(N)=O)NC(=O)[C@H](CC(=O)O)NC(=O)[C@@H](NC(=O)[C@H](Cc1ccccc1)NC(=O)[C@H](NC(=O)[C@H](C)NC(=O)[C@H](CC(=O)O)NC(=O)[C@H](CO)NC(=O)[C@@H](N)Cc1cnc[nH]1)C(C)C)[C@@H](C)O)[C@@H](C)O)C(C)C)C(=O)N[C@@H](CC(C)C)C(=O)N[C@@H](CC(N)=O)C(N)=O [VIP [D-Val5]] | 0.0062 µM and 0.0446 µM and 0.0251 µM | 0.0263 µM
7 | CC[C@H](C)[C@H](NC(=O)[C@H](CO)NC(=O)[C@H](CC(N)=O)NC(=O)[C@@H](CC(C)C)NC(=O)[C@H](Cc1ccc(O)cc1)NC(=O)[C@H](CCCCN)NC(=O)[C@H](CCCCN)NC(=O)[C@@H](NC(=O)[C@H](C)NC(=O)[C@H](CCSC)NC(=O)[C@H](CCC(N)=O)NC(=O)[C@H](CCCCN)NC(=O)[C@H](CCCN=C(N)N)NC(=O)[C@H](CC(C)C)NC(=O)[C@H](CCCN=C(N)N)NC(=O)[C@@H](NC(=O)[C@H](Cc1ccc(O)cc1)NC(=O)[C@H](CC(N)=O)NC(=O)[C@H](CC(=O)O)NC(=O)[C@@H](NC(=O)[C@H](Cc1ccccc1)NC(=O)[C@@H](NC(=O)[C@H](C)NC(=O)[C@H](CC(=O)O)NC(=O)[C@H](CO)NC(=O)[C@@H](N)Cc1cnc[nH]1)C(C)C)[C@@H](C)O)[C@@H](C)O)C(C)C)C(=O)N[C@@H](CC(C)C)C(=O)N[C@@H](CC(N)=O)C(N)=O [VIP [D-Leu23]] | 0.0031 µM and 0.0195 µM and 0.0186 µM | 0.0416 µM
8 | CC[C@H](C)[C@H](NC(=O)[C@H](CO)NC(=O)[C@H](CC(N)=O)NC(=O)[C@H](CC(C)C)NC(=O)[C@H](Cc1ccc(O)cc1)NC(=O)[C@H](CCCCN)NC(=O)[C@H](CCCCN)NC(=O)[C@@H](NC(=O)[C@H](C)NC(=O)[C@H](CCSC)NC(=O)[C@H](CCC(N)=O)NC(=O)[C@H](CCCCN)NC(=O)[C@H](CCCN=C(N)N)NC(=O)[C@H](CC(C)C)NC(=O)[C@H](CCCN=C(N)N)NC(=O)[C@@H](NC(=O)[C@H](Cc1ccc(O)cc1)NC(=O)[C@@H](CC(N)=O)NC(=O)[C@H](CC(=O)O)NC(=O)[C@@H](NC(=O)[C@H](Cc1ccccc1)NC(=O)[C@@H](NC(=O)[C@H](C)NC(=O)[C@H](CC(=O)O)NC(=O)[C@H](CO)NC(=O)[C@@H](N)Cc1cnc[nH]1)C(C)C)[C@@H](C)O)[C@@H](C)O)C(C)C)C(=O)N[C@@H](CC(C)C)C(=O)N[C@@H](CC(N)=O)C(N)=O [VIP [D-Asn9]] |  | 0.0028 µM
9 | H-HSDAVFTDNYTRLRKQMAVKKYLNSALN-NH2 [VIP Ala26] |  | 0.0043 µM and 0.0123 µM
10 | H-HSDAVFTDNYTRLRKQMAVKKYLASILN-NH2 [VIP Ala24] |  | 0.0089 µM
11 | CC[C@H](C)[C@H](NC(=O)[C@@H](CO)NC(=O)[C@H](CC(N)=O)NC(=O)[C@H](CC(C)C)NC(=O)[C@H](Cc1ccc(O)cc1)NC(=O)[C@H](CCCCN)NC(=O)[C@H](CCCCN)NC(=O)[C@@H](NC(=O)[C@H](C)NC(=O)[C@H](CCSC)NC(=O)[C@H](CCC(N)=O)NC(=O)[C@H](CCCCN)NC(=O)[C@H](CCCN=C(N)N)NC(=O)[C@H](CC(C)C)NC(=O)[C@H](CCCN=C(N)N)NC(=O)[C@@H](NC(=O)[C@H](Cc1ccc(O)cc1)NC(=O)[C@H](CC(N)=O)NC(=O)[C@H](CC(=O)O)NC(=O)[C@@H](NC(=O)[C@H](Cc1ccccc1)NC(=O)[C@@H](NC(=O)[C@H](C)NC(=O)[C@H](CC(=O)O)NC(=O)[C@H](CO)NC(=O)[C@@H](N)Cc1cnc[nH]1)C(C)C)[C@@H](C)O)[C@@H](C)O)C(C)C)C(=O)N[C@@H](CC(C)C)C(=O)N[C@@H](CC(N)=O)C(N)=O [VIP [D-Ser25]] |  | 0.0436 µM
12 | CC[C@H](C)[C@H](NC(=O)[C@H](CO)NC(=O)[C@H](CC(N)=O)NC(=O)[C@H](CC(C)C)NC(=O)[C@H](Cc1ccc(O)cc1)NC(=O)[C@H](CCCCN)NC(=O)[C@H](CCCCN)NC(=O)[C@@H](NC(=O)[C@H](C)NC(=O)[C@H](CCSC)NC(=O)[C@H](CCC(N)=O)NC(=O)[C@H](CCCCN)NC(=O)[C@H](CCCN=C(N)N)NC(=O)[C@H](CC(C)C)NC(=O)[C@H](CCCN=C(N)N)NC(=O)[C@@H](NC(=O)[C@H](Cc1ccc(O)cc1)NC(=O)[C@H](CC(N)=O)NC(=O)[C@H](CC(=O)O)NC(=O)[C@@H](NC(=O)[C@H](Cc1ccccc1)NC(=O)[C@@H](NC(=O)[C@H](C)NC(=O)[C@H](CC(=O)O)NC(=O)[C@H](CO)NC(=O)[C@@H](N)Cc1cnc[nH]1)C(C)C)[C@@H](C)O)[C@@H](C)O)C(C)C)C(=O)N[C@H](CC(C)C)C(=O)N[C@@H](CC(N)=O)C(N)=O [VIP [D-Leu27]] |  | 0.005 µM
13 | CC[C@H](C)[C@H](NC(=O)[C@H](CO)NC(=O)[C@H](CC(N)=O)NC(=O)[C@H](CC(C)C)NC(=O)[C@H](Cc1ccc(O)cc1)NC(=O)[C@H](CCCCN)NC(=O)[C@H](CCCCN)NC(=O)[C@@H](NC(=O)[C@H](C)NC(=O)[C@@H](CCSC)NC(=O)[C@H](CCC(N)=O)NC(=O)[C@H](CCCCN)NC(=O)[C@H](CCCN=C(N)N)NC(=O)[C@H](CC(C)C)NC(=O)[C@H](CCCN=C(N)N)NC(=O)C(NC(=O)[C@H](Cc1ccc(O)cc1)NC(=O)[C@H](CC(N)=O)NC(=O)[C@H](CC(=O)O)NC(=O)[C@@H](NC(=O)[C@H](Cc1ccccc1)NC(=O)[C@@H](NC(=O)[C@H](C)NC(=O)[C@H](CC(=O)O)NC(=O)[C@H](CO)NC(=O)[C@@H](N)Cc1cnc[nH]1)C(C)C)[C@@H](C)O)[C@@H](C)O)C(C)C)C(=O)N[C@@H](CC(C)C)C(=O)N[C@@H](CC(N)=O)C(N)=O (stereo partly drawn) [VIP [D- Met 17]] |  | 0.0331 µM
14 | CC[C@H](C)[C@H](NC(=O)[C@H](CO)NC(=O)[C@H](CC(N)=O)NC(=O)[C@H](CC(C)C)NC(=O)[C@H](Cc1ccc(O)cc1)NC(=O)[C@H](CCCCN)NC(=O)[C@H](CCCCN)NC(=O)[C@@H](NC(=O)[C@H](C)NC(=O)[C@@H](CCSC)NC(=O)[C@H](CCC(N)=O)NC(=O)[C@H](CCCCN)NC(=O)[C@H](CCCN=C(N)N)NC(=O)[C@H](CC(C)C)NC(=O)[C@H](CCCN=C(N)N)NC(=O)C(NC(=O)[C@H](Cc1ccc(O)cc1)NC(=O)[C@H](CC(N)=O)NC(=O)[C@H](CC(=O)O)NC(=O)C(NC(=O)[C@H](Cc1ccccc1)NC(=O)[C@@H](NC(=O)[C@H](C)NC(=O)[C@H](CC(=O)O)NC(=O)[C@H](CO)NC(=O)[C@@H](N)Cc1cnc[nH]1)C(C)C)[C@@H](C)O)[C@@H](C)O)C(C)C)C(=O)N[C@@H](CC(C)C)C(=O)N[C@@H](CC(N)=O)C(N)=O (stereo partly drawn) [VIP [D-Met17]] | 0.0067 µM and 0.0295 µM and 0.0363 µM | 
15 | H-HSDAAFTDNYTRLRKQMAVKKYLNSILN-NH2 [VIP Ala5] |  | 0.0347 µM
